In ChEMBL document CHEMBL1156481, “Enzymatic therapeutic index of acyclovir. Viral versus human polymerase gamma specificity” (J Biol Chem, 2007):

What was measured:
[1] = target: DNA polymerase subunit gamma-1 (Homo sapiens, UniProt P54098, E200A); experiment: Binding affinity to exonuclase deficient human recombinant DNA polymerase gamma E200A mutant
[2] = Binding affinity to exonuclase deficient HSV1 DNA polymerase UL42 D368A mutant; design: species or system Human alphaherpesvirus 1
[3] = system: T1, DNA polymerase subunit gamma-1 (Homo sapiens), P54098 [E200A]; experiment: Ratio of polymerization constant K to Kd for human recombinant DNA polymerase gamma E200A mutant
T1 sequence (whole entry): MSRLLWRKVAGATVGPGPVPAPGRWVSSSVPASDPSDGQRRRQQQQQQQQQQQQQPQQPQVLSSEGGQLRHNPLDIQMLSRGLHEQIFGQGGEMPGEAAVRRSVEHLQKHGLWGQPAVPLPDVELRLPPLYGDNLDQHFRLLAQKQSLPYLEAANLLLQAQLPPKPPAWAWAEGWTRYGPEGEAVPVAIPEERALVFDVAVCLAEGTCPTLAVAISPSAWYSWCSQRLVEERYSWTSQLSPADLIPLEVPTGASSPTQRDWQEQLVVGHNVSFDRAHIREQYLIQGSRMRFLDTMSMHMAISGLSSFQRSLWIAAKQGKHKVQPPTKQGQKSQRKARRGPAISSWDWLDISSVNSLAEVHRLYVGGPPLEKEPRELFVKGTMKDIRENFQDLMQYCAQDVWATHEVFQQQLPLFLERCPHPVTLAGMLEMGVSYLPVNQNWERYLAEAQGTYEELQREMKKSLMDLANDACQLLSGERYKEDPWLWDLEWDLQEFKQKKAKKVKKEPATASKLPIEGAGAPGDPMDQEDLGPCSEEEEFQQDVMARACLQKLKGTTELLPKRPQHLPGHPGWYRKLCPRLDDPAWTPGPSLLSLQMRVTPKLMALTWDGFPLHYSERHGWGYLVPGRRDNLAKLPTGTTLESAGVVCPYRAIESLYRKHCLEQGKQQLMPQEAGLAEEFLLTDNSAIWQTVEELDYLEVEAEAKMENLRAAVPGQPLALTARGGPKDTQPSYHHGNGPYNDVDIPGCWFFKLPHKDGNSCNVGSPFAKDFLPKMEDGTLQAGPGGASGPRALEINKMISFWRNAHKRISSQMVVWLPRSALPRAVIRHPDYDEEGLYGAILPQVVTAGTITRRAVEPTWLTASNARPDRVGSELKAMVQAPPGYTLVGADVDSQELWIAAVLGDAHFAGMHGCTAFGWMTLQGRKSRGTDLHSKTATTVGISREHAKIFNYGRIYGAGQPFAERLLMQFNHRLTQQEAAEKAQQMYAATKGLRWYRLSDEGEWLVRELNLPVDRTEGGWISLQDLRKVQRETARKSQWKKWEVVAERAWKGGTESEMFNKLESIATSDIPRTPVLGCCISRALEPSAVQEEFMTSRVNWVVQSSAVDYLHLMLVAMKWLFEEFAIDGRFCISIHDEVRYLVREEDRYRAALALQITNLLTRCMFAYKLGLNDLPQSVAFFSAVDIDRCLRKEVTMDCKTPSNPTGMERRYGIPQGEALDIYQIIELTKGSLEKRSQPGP

[4] = system: T1, DNA polymerase subunit gamma-1 (Homo sapiens), P54098 [E200A]; experiment: Polymerizing activity of exonuclase deficient human recombinant DNA polymerase gamma E200A mutant assessed as rate of nucleotide incorporation by pre-steady state single nucleotide incorporation assay
Human alphaherpesvirus 1 [5] = experiment: Polymerizing activity of exonuclase deficient HSV1 DNA polymerase UL42 D368A mutant assessed as rate of nucleotide incorporation by pre-steady state single turnover assay
Human alphaherpesvirus 1 [6] = experiment: Ratio of polymerization constant K to Kd for exonuclase deficient HSV1 DNA polymerase UL42 D368A mutant
Homo sapiens [7] = organism: Homo sapiens; experiment: Activity of human wild type DNA polymerase gamma assessed as amplitude of excision of compound from correctly paired DNA primer during fast phase of excision
Homo sapiens [8] = organism: Homo sapiens; experiment: Activity of human wild type DNA polymerase gamma assessed as rate of excision of compound from 3'-frayed DNA primer with 8 mispaired bases at 3' end during fast phase of excision
Homo sapiens [9] = organism: Homo sapiens; experiment: Activity of human wild type DNA polymerase gamma assessed as rate of excision of compound from correctly paired DNA primer during fast phase of excision
Homo sapiens [10] = organism: Homo sapiens; experiment: Activity of human wild-type DNA polymerase gamma assessed as rate of excision of compound from correctly paired DNA primer during fast phase of excision in presence of 100 uM dNTPs
Human alphaherpesvirus 1 [11] = experiment: Activity of wild type HSV1 DNA polymerase UL42 assessed as amplitude of excision of compound from correctly paired DNA primer during fast phase of excision
Human alphaherpesvirus 1 [12] = experiment: Activity of wild type HSV1 DNA polymerase UL42 assessed as rate of excision of compound from 3'-frayed DNA primer with 8 mispaired bases at 3' end during fast phase of excision in presence of 100 uM dNTPs
Human alphaherpesvirus 1 [13] = experiment: Activity of wild type HSV1 DNA polymerase UL42 assessed as rate of excision of compound from 3'-frayed DNA primer with 8 mispaired bases at 3' end during fast phase of excision
Homo sapiens [14] = organism: Homo sapiens; experiment: Activity of human wild type DNA polymerase gamma assessed as amplitude of excision of compound from 3'-frayed DNA primer with 8 mispaired bases at 3' end during fast phase of excision
Homo sapiens [15] = organism: Homo sapiens; experiment: Activity of human wild type DNA polymerase gamma assessed as amplitude of excision of compound from 3'-frayed DNA primer with 8 mispaired bases at 3' end during fast phase of excision in presence of 100 uM dNTPs
Homo sapiens [16] = organism: Homo sapiens; experiment: Activity of human wild type DNA polymerase gamma assessed as rate of excision of compound from 3'-frayed DNA primer with 8 mispaired bases at 3' end during fast phase of excision in presence of 100 uM dNTPs
Human alphaherpesvirus 1 [17] = experiment: Activity of wild type HSV1 DNA polymerase UL42 assessed as amplitude of excision of compound from 3'-frayed DNA primer with 8 mispaired bases at 3' end during fast phase of excision in presence of 100 uM dNTPs
Homo sapiens [18] = organism: Homo sapiens; experiment: Activity of human wild type DNA polymerase gamma assessed as amplitude of excision of compound from correctly paired DNA primer during fast phase of excision in presence of 100 uM dNTPs
Human alphaherpesvirus 1 [19] = experiment: Activity of wild type HSV1 DNA polymerase UL42 assessed as rate of excision of compound from correctly paired DNA primer during fast phase of excision in presence of 100 uM dNTPs
Human alphaherpesvirus 1 [20] = experiment: Activity of wild type HSV1 DNA polymerase UL42 assessed as rate of excision of compound from correctly paired DNA primer during fast phase of excision
Human alphaherpesvirus 1 [21] = experiment: Activity of wild type HSV1 DNA […] UL42 assessed as amplitude of excision of compound from correctly paired DNA primer during fast phase of excision in presence of 100 uM dNTPs
Human alphaherpesvirus 1 [22] = experiment: Activity of wild type HSV1 DNA polymerase UL42 assessed as amplitude of excision of compound from 3'-frayed DNA primer with 8 mispaired bases at 3' end during fast phase of excision
Homo sapiens [23] = organism: Homo sapiens; experiment: Activity of human wild type DNA polymerase gamma assessed as rate of excision of compound from correctly paired DNA primer during slow phase of excision
Human alphaherpesvirus 1 [24] = experiment: Activity of wild type HSV1 DNA polymerase UL42 assessed as amplitude of excision of compound from 3'-frayed DNA primer with 8 mispaired bases at 3' end during slow phase of excision
Human alphaherpesvirus 1 [25] = experiment: Activity of wild type HSV1 DNA polymerase UL42 assessed as rate of excision of compound from 3'-frayed DNA primer with 8 mispaired bases at 3' end during slow phase of excision
Homo sapiens [26] = organism: Homo sapiens; experiment: Activity of human wild-type DNA polymerase gamma assessed as rate of excision of compound from 3'-frayed DNA primer with 8 mispaired bases at 3' end during slow phase of excision
Human alphaherpesvirus 1 [27] = experiment: Activity of wild type HSV1 DNA polymerase UL42 assessed as rate of excision of compound from correctly paired DNA primer during slow phase of excision
Human alphaherpesvirus 1 [28] = experiment: Activity of wild type HSV1 DNA polymerase UL42 assessed as amplitude of excision of compound from correctly paired DNA primer during slow phase of excision
Homo sapiens [29] = organism: Homo sapiens; experiment: Activity of human wild-type DNA polymerase gamma assessed as amplitude of excision of compound from 3'-frayed DNA primer with 8 mispaired bases at 3' end during slow phase of excision
Homo sapiens [30] = organism: Homo sapiens; experiment: Activity of human wild type DNA polymerase gamma assessed as amplitude of excision of compound from correctly paired DNA primer during slow phase of excision

| SMILES | Kd [1] [µM] | Kd [2] [µM] | Ratio [3] [µM⁻¹ s⁻¹] | K [4] [s⁻¹] | K (Human alphaherpesvirus 1 [5]) [s⁻¹] | Ratio (Human alphaherpesvirus 1 [6]) [µM⁻¹ s⁻¹] | Activity (Homo sapiens [7]) [nM] | Activity (Homo sapiens [8]) | Activity (Homo sapiens [9]) | Activity (Human alphaherpesvirus 1 [11]) [nM] | Activity (Human alphaherpesvirus 1 [13]) [s⁻¹] | Activity (Homo sapiens [14]) [nM] | Activity (Human alphaherpesvirus 1 [20]) | Activity (Human alphaherpesvirus 1 [22]) [nM] | also measured |
| --- | --- | --- | --- | --- | --- | --- | --- | --- | --- | --- | --- | --- | --- | --- | --- |
| Nc1nc2c(ncn2COCCOP(=O)(O)OP(=O)(O)OP(=O)(O)O)c(=O)[nH]1 [ACYCLOVIR TRIPHOSPHATE] | 6 | 6 | 0.17 | 1.03 | 10.1 | 1.7 |  |  |  |  |  |  |  |  |  |
| Nc1nc(=O)c2ncn(COCCOP(=O)(O)O)c2[nH]1 |  |  |  |  |  |  | 97 | 1.3 ×10⁻³ /s | 2.1 ×10⁻³ /s | 86 | > 0.3 | 94 | 5.1 ×10⁻⁴ /s | 90 | Activity (Homo sapiens [10]): 9.2 ×10⁻⁵ /s; Activity (Human alphaherpesvirus 1 [12]): > 0.3 s⁻¹; Activity (Homo sapiens [15]): 90 nM; Activity (Homo sapiens [16]): 3 ×10⁻⁴ /s; Activity (Human alphaherpesvirus 1 [17]): 90 nM; Activity (Homo sapiens [18]): 91 nM; Activity (Human alphaherpesvirus 1 [19]): 2 ×10⁻⁴ /s; Activity (Human alphaherpesvirus 1 [21]): 85 nM |
| Cc1cn([C@H]2C[C@H](O)[C@@H](COP(=O)(O)OP(=O)(O)OP(=O)(O)O)O2)c(=O)[nH]c1=O |  |  |  |  | 137 | 45 |  |  |  |  |  |  |  |  |  |
| Nc1nc2c(ncn2[C@H]2C[C@H](O)[C@@H](COP(=O)(O)OP(=O)(O)OP(=O)(O)O)O2)c(=O)[nH]1 [DEOXYGUANOSINE TRIPHOSPHATE] | 0.8 | 0.8 | 45 | 37 | 640 | 80 |  |  |  |  |  |  |  |  |  |
| Nc1nc(O)c2ncn([C@H]3C[C@H](O)[C@@H](COP(=O)(O)O)O3)c2n1 |  |  |  |  |  |  | 16 | 2.6 s⁻¹ | 0.45 s⁻¹ | 11 | 125 | 16 | 12 s⁻¹ | 65 | Activity (Homo sapiens [23]): 0.02 s⁻¹; Activity (Human alphaherpesvirus 1 [24]): 24 nM; Activity (Human alphaherpesvirus 1 [25]): 1.3 s⁻¹; Activity (Homo sapiens [26]): 0.27 s⁻¹; Activity (Human alphaherpesvirus 1 [27]): 0.25 s⁻¹; Activity (Human alphaherpesvirus 1 [28]): 77 nM; Activity (Homo sapiens [29]): 27 nM; Activity (Homo sapiens [30]): 74 nM |
